In patent US8193191B2, “Urotensin II receptor antagonists” (Janssen Pharmaceutica N.V., priority 2006, dated 2012) one finds IC50 and Ki data, which are given here for 15 molecules.

Usually IC50 stands for the concentration at which inhibition is half-maximal. The Ki is the dissociation constant of the complex between target and ligand, obtained from inhibition or displacement. High values mean a looser hold on the target, low ones a stronger hold on the target.

Assay [1] addresses T1, rat GPR14 (U-II receptor) (Rattus norvegicus, UniProt P49684).
T1 construct: expressed in transfected cells
T1 sequence (P49684 1-386): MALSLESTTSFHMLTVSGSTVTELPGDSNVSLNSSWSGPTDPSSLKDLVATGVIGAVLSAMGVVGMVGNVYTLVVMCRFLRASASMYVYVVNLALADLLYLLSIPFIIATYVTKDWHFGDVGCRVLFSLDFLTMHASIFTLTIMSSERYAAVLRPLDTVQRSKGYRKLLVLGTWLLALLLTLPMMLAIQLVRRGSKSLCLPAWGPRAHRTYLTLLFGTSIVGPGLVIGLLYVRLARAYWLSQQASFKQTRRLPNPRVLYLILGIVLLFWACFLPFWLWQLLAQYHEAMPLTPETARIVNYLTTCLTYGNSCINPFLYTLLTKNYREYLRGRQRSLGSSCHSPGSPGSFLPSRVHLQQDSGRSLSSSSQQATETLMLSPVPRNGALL
In words: Rat UII Calcium Mobilization FLIPR Assay. Format: cell-based. The settings on record: average value for the compound tested; read-out: Rat UII FLIPR Average IC50. In short, it runs like this: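 Fluorescent calcium signals were recorded at room temperature (23° C) by FLIPR. Stable rat U-II receptor CHO lines had been dye-loaded for 1 h at 37° C in pH 7.4 HBSS containing 20 mM HEPES, 0.1% BSA and 2.5 mM probenecid.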
On the technique in general: Calcium flux is commonly read through the fluorescence of an indicator in the cells.

For assay [2], the target named is T2, Human UII receptor, 6D9 human rhabdomyosarcoma cells (Homo sapiens, UniProt Q9UKP6).
T2 construct: 6D9: isolated by dilution subcloning of RMS13 cells, ATCC® Number: CRL-2061; host or cells: 6D9 human rhabdomyosarcoma cells (subclone of RMS13)
T2 sequence (Q9UKP6 1-389): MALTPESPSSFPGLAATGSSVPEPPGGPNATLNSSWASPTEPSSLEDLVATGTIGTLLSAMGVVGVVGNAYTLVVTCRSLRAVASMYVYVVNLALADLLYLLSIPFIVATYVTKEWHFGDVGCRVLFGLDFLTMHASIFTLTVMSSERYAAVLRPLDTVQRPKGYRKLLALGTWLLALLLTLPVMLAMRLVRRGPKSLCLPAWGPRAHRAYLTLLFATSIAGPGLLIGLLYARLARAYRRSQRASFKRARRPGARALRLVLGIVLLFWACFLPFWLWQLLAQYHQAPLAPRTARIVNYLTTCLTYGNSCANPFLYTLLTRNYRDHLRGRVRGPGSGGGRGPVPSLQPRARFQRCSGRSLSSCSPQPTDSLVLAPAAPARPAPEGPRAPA
In words: Human UII Calcium Mobilization Assay. The settings on record: average value, FLIPR TETRA, read-out: Human UII Ca^+ Mobilization Average IC50. The class given is cell-based. As to the method:
6D9 human rhabdomyosarcoma cells were seeded into tissue culture treated 384-well black-walled clear bottom plates (3712, Corning Incorporated, Corning, N.Y.) at 8,000 cells/well in 25 μL of culture medium, and maintained in an incubator (5% CO2 at 37° C.) for 22 hrs prior to the calcium mobilization assay. 25 μL of dye solution was added to the wells such that the final liquid volume before agonist/antagonist treatment was 50 μL for all assays. The cell plates were incubated at 37° C. for 45 minutes and the fluorescence intensity was measured on a Fluorometric Imaging Plate Reader (FLIPR^TETRA, Molecular Devices, Sunnyvale, Calif.).
Antagonist and agonist U-II were added at room temperature on the FLIPR^TETRA, and the fluorescence intensity before and after addition was measured over a period of 4 minutes. The dye incubation time and temperature as well as instrument setting was adjusted so the fluorescence intensity could be compared between plates on the same day. EC50 and IC50 were analyzed using GraphPad Prism 4 software (GraphPad Software Inc., San Diego, Calif.).
Materials and reagent Preparation: Human Rhabdomyosarcoma cells (6D9: isolated by dilution subcloning of RMS13 cells, ATCC® Number: CRL-2061, American Type Culture Collection ATCC, Manassas, Va.) was maintained in RPMI-1640 medium (30-2001, ATCC, Manassas, Va.) supplemented with 10% (v/v) Fetal Bovine Serum (SH30071.03, Hyclone, Logan, Utah).
Dye preparation: BD™ Calcium Assay Kit (80500-301, BD Biosciences, Rockville, Md.) was prepared according to the manufacture's instruction in 1× Hanks' balanced salt solution (HBSS, 21-023-CV, Mediatech, Inc. Herndon, Va.) containing 20 mM HEPES buffer (25-060-CI, Mediatech, Inc. Herndon, Va.). Final dye loading conditions included 1.25 mM probenecid (P36400, Invitrogen, Carlsbad, Calif.) and 0.01% FBS.
Urantide (PUT-3639-PI, Peptide International, Louisville, Ky.) was prepared in water at 5 mM. For assays, U-II agonist, U-II antagonist and urantide were diluted with HBSS/HEPES containing 0.01% FBS.
Test compounds were dissolved in DMSO at 10 mM concentration. The serial dilutions were carried out in HBSS/HEPES. The highest final DMSO concentration was at 0.1%.

In assay [3] the target is T3, endogenous human UII receptor (Homo sapiens, UniProt Q9UKP6).
T3 sequence (Q9UKP6 1-389): T2 sequence (Q9UKP6 1-389)
The assay can be described thus: Human Radioligand Binding Assay ((^125I)-U-II binding to human skeletal muscle myoblasts).

Consider `COc1ccc(CN2C(=O)c3cccc(N4CCN(C5C6CC7CC(C6)CC5C7)CC4)c3C2=O)cc1OC` (stereo not shown) [Cpd 87, 4-(4-adamantan-2-yl-piperazin-1-yl)-2-(3,4-dimethoxy-benzyl)-isoindole-1,3-dione], for which the IC50 in assay [1] turned out to be 480 nM; in assay [2] it was 1500 nM.

For the molecule `COC(=O)c1csc(S(=O)(=O)NCCCC(c2ccc(OC)c(OC)c2)N2C(=O)c3cccc(N4CCN([C@H](C)c5ccccc5)CC4)c3C2=O)c1OC` (stereo partly drawn) [Cpd 88, 5-(4-(3,4-dimethoxy-phenyl)-4-{1,3-dioxo-4-[4-(1R)-(1-phenyl-ethyl)-piperazin-1-yl]-1,3-dihydro-isoindol-2-yl}-butylsulfamoyl)-4-methoxy-thiophene-3-carboxylic acid methyl ester], the figures for the IC50 in assay [1] and in assay [2] were 320 nM and > 3000 nM, respectively. Moreover, the affinity in assay [3], expressed as Ki, was 350 nM.

For the molecule `COc1ccc(C(CCCNS(=O)(=O)c2cc(C)oc2C(F)(F)F)N2C(=O)c3cccc(N4CCN([C@H](C)c5ccccc5)CC4)c3C2=O)cc1OC` (stereo partly drawn) [Cpd 89, 5-methyl-2-trifluoromethyl-furan-3-sulfonic acid (4-(3,4-dimethoxy-phenyl)-4-{1,3-dioxo-4-[4-(1R)-(1-phenyl-ethyl)-piperazin-1-yl]-1,3-dihydro-isoindol-2-yl}-butyl)-amide], the IC50 in assay [1] is 540 nM; in assay [2] it was > 10000 nM. The molecule further showed a Ki in assay [3] of 890 nM.

As for `COC(=O)c1ccc(S(=O)(=O)NCCCC(c2ccc(OC)c(OC)c2)N2C(=O)c3cccc(N4CCN([C@H](C)c5ccccc5)CC4)c3C2=O)o1` (stereo partly drawn) [Cpd 90, 5-(4-(3,4-dimethoxy-phenyl)-4-{1,3-dioxo-4-[4-(1R)-(1-phenyl-ethyl)-piperazin-1-yl]-1,3-dihydro-isoindol-2-yl}-butylsulfamoyl)-furan-2-carboxylic acid methyl ester], the IC50 in assay [1] worked out at 130 nM; in assay [2] it was 560 nM. The affinity in assay [3], expressed as Ki, was 320 nM.

As for `COc1ccc(C(CCCNS(=O)(=O)c2c(C)nn(C)c2C)N2C(=O)c3cccc(N4CCN([C@H](C)c5ccccc5)CC4)c3C2=O)cc1OC` (stereo partly drawn) [Cpd 91, 1,3,5-trimethyl-1H-pyrazole-4-sulfonic acid (4-(3,4-dimethoxy-phenyl)-4-{1,3-dioxo-4-[4-(1R)-(1-phenyl-ethyl)-piperazin-1-yl]-1,3-dihydro-isoindol-2-yl}-butyl)-amide], the IC50 in assay [1] came out at 15 nM; in assay [2] it was 310 nM. In assay [3], this molecule gave a Ki of 150 nM.

As for `COc1ccc(C(CCNC(=O)Cc2ccncc2)N2C(=O)c3cccc(N4CCN([C@H](C)c5ccccc5)CC4)c3C2=O)cc1OC` (stereo partly drawn) [Cpd 103, N-(3-(3,4-dimethoxy-phenyl)-3-{1,3-dioxo-4-[4-(1R)-(1-phenyl-ethyl)-piperazin-1-yl]-1,3-dihydro-isoindol-2-yl}-propyl)-2-pyridin-4-yl-acetamide], the IC50 was 35 nM in assay [1] and 590 nM in assay [2].

`COc1ccc([C@@H](CCCNS(=O)(=O)c2cnc(C)n2C)N2C(=O)c3cccc(N4CCN([C@H](C)c5ccccc5)CC4)c3C2=O)cc1OC` [Cpd 127, (R)-2,3-dimethyl-3H-imidazole-4-sulfonic acid (4-(3,4-dimethoxy-phenyl)-4-{1,3-dioxo-4-[4-(1R)-(1-phenyl-ethyl)-piperazin-1-yl]-1,3-dihydro-isoindol-2-yl}-butyl)-amide]: the IC50 in assay [1] came out at 6.4 nM; in assay [2], 350 nM.

In the case of `COc1ccc([C@@H](CCCNc2ccccn2)N2C(=O)c3cccc(N4CCN([C@H](C)c5ccccc5)CC4)c3C2=O)cc1OC` [Cpd 142, (R)-2-[1-(3,4-dimethoxy-phenyl)-4-(pyridin-2-ylamino)-butyl]-4-[4-(1R)-(1-phenyl-ethyl)-piperazin-1-yl]-isoindole-1,3-dione], the IC50 in assay [1] came to 97 nM; in assay [2], 1100 nM.

Take `COc1ccc([C@@H](CCCNC(=O)CN(C)C)N2C(=O)c3cccc(N4CCN([C@H](C)c5ccccc5)CC4)c3C2=O)cc1OC` [Cpd 143, (R)-N-(4-(3,4-dimethoxy-phenyl)-4-{1,3-dioxo-4-[4-(1R)-(1-phenyl-ethyl)-piperazin-1-yl]-1,3-dihydro-isoindol-2-yl}-butyl)-2-dimethylamino-acetamide]: the results for the IC50 in assay [1] and in assay [2] were 28 nM and 690 nM, respectively.

As for `COc1ccc([C@@H](CCCNS(=O)(=O)c2cccs2)N2C(=O)c3cccc(N4CCN(CC(F)(F)F)CC4)c3C2=O)cc1OC` [Cpd 195, (R)-thiophene-2-sulfonic acid (4-(3,4-dimethoxy-phenyl)-4-{1,3-dioxo-4-[4-(2,2,2-trifluoro-ethyl)-piperazin-1-yl]-1,3-dihydro-isoindol-2-yl}-butyl)-amide], the IC50 is 2100 nM in assay [1] and > 10000 nM in assay [2].

Take `COc1ccc([C@@H](CCCNC(=O)C(C)C)N2C(=O)c3cccc(OC4CCN(C)C4)c3C2=O)cc1OC` (stereo partly drawn) [Cpd 200, (R)-N-{4-(3,4-dimethoxy-phenyl)-4-[4-(1-methyl-pyrrolidin-3-yloxy)-1,3-dioxo-1,3-dihydro-isoindol-2-yl]-butyl}-isobutyramide]: the 50% inhibitory concentration (IC50) was 4000 nM in assay [1] and > 10000 nM in assay [2].

`CCN1CCN(c2cccc3c2C(=O)N([C@H](CCCNS(=O)(=O)c2c(C)nn(C)c2C)c2ccc(OC)c(OC)c2)C3=O)CC1` [Cpd 204, (R)-1,3,5-trimethyl-1H-pyrazole-4-sulfonic acid {4-(3,4-dimethoxy-phenyl)-4-[4-(4-ethyl-piperazin-1-yl)-1,3-dioxo-1,3-dihydro-isoindol-2-yl]-butyl}-amide]: the IC50 in assay [1] came out at 7.5 nM; in assay [2] it was 200 nM.

As to `COc1ccc([C@@H](CCCNC(=O)C(C)C)N2C(=O)c3cccc(OC4CCN(C)CC4)c3C2=O)cc1OC` [Cpd 205, (R)-N-{4-(3,4-dimethoxy-phenyl)-4-[4-(1-methyl-piperidin-4-yloxy)-1,3-dioxo-1,3-dihydro-isoindol-2-yl]-butyl}-isobutyramide], the IC50 was 3700 nM in assay [1] and > 3000 nM in assay [2].

On to `CCN1CCN(c2cccc3c2C(=O)N([C@H](CCCOS(=O)(=O)c2cccs2)c2ccc(OC)c(OC)c2)C3=O)CC1` [Cpd 208, (R)-thiophene-2-sulfonic acid 4-(3,4-dimethoxy-phenyl)-4-[4-(4-ethyl-piperazin-1-yl)-1,3-dioxo-1,3-dihydro-isoindol-2-yl]-butyl ester], for which the results for the IC50 in assay [1] and in assay [2] were 320 nM and 4500 nM, respectively.

Take `CCN1CCN(c2cccc3c2C(=O)N([C@H](CCCOS(=O)(=O)N(C)C)c2ccc(OC)c(OC)c2)C3=O)CC1` [Cpd 209, (R)-dimethyl-sulfamic acid 4-(3,4-dimethoxy-phenyl)-4-[4-(4-ethyl-piperazin-1-yl)-1,3-dioxo-1,3-dihydro-isoindol-2-yl]-butyl ester]: the IC50 in assay [2] worked out at 3800 nM. The molecule also registered a Ki in assay [3] of 290 nM.
